What is called mortality is the share of the test organisms that died.

The subject of data set [1] is isolated duodenum of a rat (barium chloride). As to the kind of experiment: Spasmolytic: contraction by barium chloride of isolated duodenum of a rat. The protocol:
Compounds of formula I, introduced in the survival medium, are capable of opposing the contacting action of barium chloride on the isolated duodenum of a rat. This activity is determined either by taking papaverine as the standard or by calculating the DE50 of the compound tested.

Data set [2] has as its system painful stretchings following intraperitoneal injection of acetic acid. As to the kind of experiment: Analgesic: painful stretchings following intraperitoneal acetic acid in mouse. In kind it is in vivo. Particulars: 100 mg/kg/PO, read-out: Percentage reduction in the number of painful stretchings. From the text: The compounds of formula (I) administered orally to a mouse are capable of reducing the number of painful stretchings following the intraperitoneal injection of acetic acid.

The subject of data set [3] is ventricular fibrillations caused by inhaling chloroform. As to the kind of experiment: Antiarythmic: ventricular fibrillations caused by inhaling chloroform in mouse. The class given is in vivo. Particulars: ip, intraperitoneal, read-out: Antagonism to fibrillations caused by chloroform with a mouse, DE50. From the text: Administered intraperitoneally, the compounds of formula (I) are able to protect the mouse against ventricular fibrillations caused by inhaling chloroform.

Data set [4] has as its system gastric ulcers (Shay ulcers). As to the kind of experiment: Antiulcerous: gastric ulcers caused in a rat by ligature of the pylorus (Shay ulcers). The class given is in vivo. Particulars: 50 mg/kg, intraduodenal. The protocol: Compounds of formula (I) administered intraduodenally reduce the size of gastric ulcers caused in a rat by ligature of the pylorus (Shay ulcers). As examples, the intradeuodenal administration of 50 mg/kg of the compounds of code numbers 72143 and 7251 bring about a 70% and 65% reduction respectively of the Shay ulcer.

Another data set concerns urinary elimination. As to the kind of experiment: Diuretic: volume of urine in mouse. The class given is in vivo. Particulars: 4 hours, versus controls, read-out: Percentage increase in urinary elimination; for change in vivo at 50 mg/kg: 50 mg/kg/PO; for change in vivo at 12.5 mg/kg: 12.5 mg/kg/PO. The protocol:
The compounds of formula (I) administered orally to a mouse simultaneously with a volume of 1 ml of sodium chloride isotonic solute per 25 g of body weight are able to cause an increase of the volume of urine given compared with controls, this volume being measured for the 4 hours following administration.

Data set [5] can be described thus: Acute toxicity / mortality, oral, mice. In kind it is in vivo. Particulars: mouse, in vivo; for mortality: read-out: Percentage of mortality with mice; for LD50: mice, oral, Table XI, read-out: LD50 (mice). From the text:
(§1) As is shown by the preceding results and by those given in Table XIV below, the difference between pharmacologically active doses and lethal doses is sufficiently great to allow the use of compounds of formula (I) in therapeutics.

A further data set relates to mice. As to the kind of experiment: Acute toxicity / mortality, oral, mice. The settings on record: oral; Table XII. The class given is in vivo.
From the text: as §1

For data set [6], the system named is ptosis caused by reserpine. As to the kind of experiment: Anti-depressive: antagonism against ptosis caused by intravenous reserpine. The class given is in vivo. The settings on record: for ED50: po, Table XII, read-out: Antagonism against ptosis caused by reserpine, DE50. The protocol: (§2) In this regard, the compounds of formula I differ unexpectedly from the compounds of U.S. Pat. No. 3,726,900, as shown by comparative testing.
(§3) The anti-depressive properties of additional analog compounds were tested by the same tests. In these tests, the comparison compounds had the formula [drawing 28] The specific compounds tested and the test results are indicated in Table XIII.

Data set [7] deals with bronchoconstrictions provoked by serotonine. As to the kind of experiment: Antiserotonine: bronchoconstrictions provoked by intravenous serotonine in guinea pigs (Konzett and Rossler test). The settings on record: Cavia porcellus, serotonine bronchoconstriction, read-out: Test of Konzett and Rossler DE50. In kind it is in vivo. From the text:
(§4) For purposes of comparison, compounds of the formula (I) were compared, as to their antiserotonine properties, with a respresentative sampling of compounds disclosed in U.S. Pat. No. 3,726,900. The comparison compounds tested have the formula [drawing 23]

The subject of data set [8] is lethal effect of yohimbine. As to the kind of experiment: Anti-depressive: potentialization of lethal effect of yohimbine. In kind it is in vivo. The settings on record: Table XII.
Data set [9] deals with cough caused by stimulation of the upper laryngeal nerve. As to the kind of experiment: Anti-cough: cough caused by stimulation of the upper laryngeal nerve in an anaesthetized cat. The class given is in vivo. Particulars: 25 mg/kg/ID.
The subject of data set [10] is respiratory depression caused by morphine. As to the kind of experiment: Respiratory analeptic: respiratory depression caused by morphine in anaesthetized guinea pig. In kind it is in vivo. Particulars: 5 mg/kg/IV. The protocol:
The compounds of formula (I) administered intravenously to an anaesthetized guinea pig are capable of opposing respiratory depression caused by morphine. As an example, with a dose of 5 mg/kg/IV, compound 70358 increased respiratory frequency by 65%.

Data set [11] relates to lethal effect of yohimbine. As to the kind of experiment: Anti-depressive: potentialization of lethal effect of yohimbine. In kind it is in vivo. Particulars: at 100 mg/kg/PO. The protocol:
as §2, §3

The subject of data set [12] is coronary vessels of the isolated heart of a guinea pig. As to the kind of experiment: Vasodilatory: flow in coronary vessels of isolated heart of a guinea pig. Particulars: 0.5 μg/ml in perfusion liquid. The protocol: The compounds of formula (I) are able to increase the flow in the coronary vessels of the isolated heat of a guinea pig when they are added to the perfusion liquid of this organ. As an example, by adding 0.5 μg/ml of the compound code number 71562 to the perfusion liquid of the isolated heart of a guinea pig, a 45% increase in the flow of the coronary vessels was observed.

For data set [13], the system named is explorations in the escape enclosure. As to the kind of experiment: Sedative: number of explorations in the escape enclosure, mouse. In kind it is in vivo. Particulars: 100 mg/kg/PO. The protocol:
The compounds of formula (I) administered orally to a mouse reduce the number of explorations in the escape enclosure. As examples, the administration of 100 mg/kg/PO of the compounds of code numbers 71562 and 72142 bring about a 40% reduction in the number of explorations in the escape enclosure in each case.

Data set [14] deals with isolated fundus of rats (serotonine). As to the kind of experiment: Antiserotonine: contractions of the isolated fundus of rats provoked by serotonine. The settings on record: in vitro.
From the text: as §4

The subject of data set [15] is isolated tied uterus (serotonine). As to the kind of experiment: Antiserotonine: contractions of the isolated tied uterus provoked by serotonine. The settings on record: in vitro.
From the text: as §4

The subject of data set [16] is isolated ileum of a guinea pig (histamine). As to the kind of experiment: Antihistamine: contraction by histamine of isolated ileum of a guinea pig. The protocol: The compounds of formula (I) introduced in the survival medium are able to oppose the contracting action of histamine on the isolated ileum of a guinea pig. This activity is calculated by the DE50 of the tested compounds.

Data set [17] has as its system local edema caused by carraghenine. As to the kind of experiment: Antiinflammatory: local plantar edema caused by carraghenine in rat. The class given is in vivo. From the text:
These properties bring about a reduction of the local edema, caused by injecting a rat under the plantar with a phlogogenic agent such as carraghenine, following oral administration of compounds of formula (I).

Where [18] appears, read: at 50 mg/kg/PO, result in words.

Read-outs that look alike come from different tables or passages of the source.

For the compound `CN(C)C(=O)CN1CCN(CC2COC3(O2)c2ccccc2C=Cc2ccccc23)CC1` (centres unmarked) [compound 7251], the “DE50 (spasmolytic)” value in data set [1] was determined as 3.50 µg/mL. In addition, in data set [2], the inhibition in vivo at 100 mg/kg came to 50%. Moreover, the ED50 in data set [3] was determined as 100 mg/kg. Besides, the “Reduction of the Shay ulcer” value in [4] is 65%. For the same compound, the change in vivo at 50 mg/kg in the data set on urinary elimination was 45%. Moreover, in data set [5] (2000 mg/kg/PO), the mortality was 0%. Further, the LD50 is over 2000 mg/kg in [5] and over 2000 mg/kg/P.O with mice. In addition, the “Antagonism against ptosis caused by reserpine” value (“Antagonism … by reserpine” for short) in [6] (setting [18]) was “Inactive”.
Turning to `CN(C)CC1COC2(O1)c1ccccc1CCc1ccccc12` (centres unmarked) [compound 69257, reference compound], the ED50 was found to be 0.4 mg/kg in [7] and 35 mg/kg in [6]. Besides, the LD50 in data set [5] came to 550 mg/kg. Moreover, in data set [8], the “Potentialization of lethal effect of yohimbine, DE50” value was 10 mg/kg/PO.
As for `CN(C)CC1COC2(O1)c1ccccc1C=Cc1ccccc12` (centres unmarked) [compound 70312, reference compound], the ED50 in data set [7] came out at 0.43 mg/kg; in data set [6], 13 mg/kg. Moreover, the LD50 in data set [5] turned out to be 480 mg/kg. The “Potentialization of lethal effect of yohimbine, DE50” value in [8] is recorded as 46 mg/kg/PO.
For the compound `CN1CCN(CC2COC3(O2)c2ccccc2CCc2ccccc23)CC1` (centres unmarked) [compound 70358], in [9], the “Reduction of cough, duration” value is given as over 60 mm and the “Reduction of cough, intensity” value was 100%. Also, the Spasmolytic activity in data set [1] (relative to papaverine as the standard) stood at 1.5 × papaverine. The inhibition in vivo at 100 mg/kg in data set [2] is 43%. The “Increase in respiratory frequency” value in [10] is 65%. Besides, in [5] (1000 mg/kg/PO), the mortality was about 50%. Moreover, the LD50 in data set [5] was determined as 1000 mg/kg. In addition, the “Antagonism … by reserpine” value in [6] (at 100 mg/kg/PO) is “Inactive”. The “Potentialization of lethal effect of yohimbine” value in [11] was found to be 40%.
As for `O=C(CN1CCN(CC2COC3(O2)c2ccccc2C=Cc2ccccc23)CC1)N1CCCC1` (centres unmarked) [compound 71562], the inhibition in vivo at 100 mg/kg in data set [2] was found to be 47%. In [12], the “Increase in the flow of the coronary vessels” value came to 45%. For the same compound, the ED50 in [3] worked out at 125 mg/kg. In addition, the “Reduction in the number of explorations in the escape enclosure” value in [13] is on record as 40%. Also, the change in vivo at 50 mg/kg in the data set with urinary elimination was 70%. Also, in data set [14], the Antagonisms against contractions of fundus of rat, DE50 came to 0.1 µg/mL. Also, the mortality in [5] (2000 mg/kg/PO) is about 50%. Also, in [5], the LD50 was 2000 mg/kg.
Regarding `O=C(CN1CCN(CC2COC3(O2)c2ccccc2C=Cc2ccccc23)CC1)N1CCOCC1` (centres unmarked) [compound 71564], the “DE50 (spasmolytic)” value in data set [1] was determined as 2.50 µg/mL. Moreover, the ED50 in data set [3] is 200 mg/kg; in data set [7], 0.05 mg/kg. Besides, the change in vivo at 12.5 mg/kg in the data set with urinary elimination turned out to be 50%. Further, the Antagonisms against contractions of tied uterus, DE50 in data set [15] worked out at 0.001 µg/mL. Besides, the Antagonisms against contractions of fundus of rat, DE50 in [14] worked out at 0.74 µg/mL. For the same compound, in [5] (3500 mg/kg/PO), the mortality was about 50%. Further, the LD50 in [5] stood at 3500 mg/kg.
Consider `CCCNC(=O)CN1CCN(CC2COC3(O2)c2ccccc2C=Cc2ccccc23)CC1` (centres unmarked) [compound 72142], for which the “DE50 (spasmolytic)” value in [1] is 2.50 µg/mL. Also, the inhibition in vivo at 100 mg/kg in data set [2] is 70%. Besides, the figures for the ED50 in data set [3] and in data set [7] were 85 mg/kg and 0.6 mg/kg, respectively. Also, the “Antihistamine activity DE50” value in data set [16] worked out at 0.6 µg/mL. The “Reduction in the number of explorations in the escape enclosure” value in [13] came to 40%. The change in vivo at 50 mg/kg in the data set on urinary elimination was 55%. Further, the mortality in [5] (1650 mg/kg/PO) is about 50%. In addition, in data set [5], the LD50 came to 1650 mg/kg. In addition, the “Antagonism … by reserpine” value in data set [6] (at 100 mg/kg/PO) is “Inactive”. Besides, the “Potentialization of lethal effect of yohimbine” value in [11] amounted to 40%.
Regarding `CN1CCN(CC2COC3(O2)c2ccccc2C=Cc2ccccc23)CC1` (centres unmarked) [compound 72143], in [1], the “DE50 (spasmolytic)” value came out at 3.75 µg/mL. Moreover, the “Percentage reduction of the edema” value in [17] (30 mg/kg/PO) is on record as 70%. Further, the “Reduction of the Shay ulcer” value in data set [4] came out at 70%. For the same compound, the “Antihistamine activity DE50” value in [16] stood at 0.25 µg/mL. In addition, the change in vivo at 25 mg/kg with urinary elimination (25 mg/kg/PO) is 70%. For the same compound, the mortality in data set [5] (300 mg/kg/PO) was about 50%. In addition, the LD50 in data set [5] stood at 300 mg/kg. Besides, the “Antagonism … by reserpine” value in [6] (setting [18]) is recorded as “Inactive”.
`OCC(O)CN1CCN(CC2COC3(O2)c2ccccc2C=Cc2ccccc23)CC1` (centres unmarked) [compound 72196]: the “DE50 (spasmolytic)” value in data set [1] stood at 0.25 µg/mL. Further, the inhibition in vivo at 100 mg/kg in data set [2] was determined as 45%. For the same compound, in data set [17] (100 mg/kg/PO), the “Percentage reduction of the edema” value is listed as 70%. The “Antihistamine activity DE50” value in [16] was 1 µg/mL. Moreover, the change in vivo at 12.5 mg/kg in the data set with urinary elimination is 40%. Besides, the mortality in [5] (1100 mg/kg/PO) was about 50%. Further, in data set [5], the LD50 is 1100 mg/kg.

The record behind these values is US4049660A, “N-substituted derivatives of 4 (N-piperazinylmethyl) spiro dibenzocycloheptadi- (or tri-) ene-5, 2-dioxolane (1,3) their method of preparation and their application in therapeutics” (Delalande S.A., priority 1971, dated 1977).
